Assay results reported in BindingDB's records for doi:10.1021/jm030061i (University of Connecticut, 2003).

Experiments:
[1] = molecular target: hypoxanthine phosphoribosyltransferase (Salmonella typhimurium); assay: Kinetic inhibition constant of compound with bacterial Hypoxanthine Phosphoribosyltransferase (HPRT)
[2] = molecular target: hypoxanthine phosphoribosyltransferase (Trypanosoma cruzi); assay: Kinetic inhibition constant of compound with Trypanosoma cruzi Hypoxanthine Phosphoribosyltransferase (HPRT)

Structure (SMILES)	Ki [1]	Ki [2]
O=C(Nc1cc2c3ccccc3ccc2c2ccccc12)C(Cl)Cl [2,2-Dichloro-N-chrysen-6-yl-acetamide]	> 25000 nM	500 nM
Fc1cc2c3ccccc3ccc2c2ccccc12 [6-Fluoro-chrysene]	–	2800 nM
O=[N+]([O-])c1cc2c3ccccc3ccc2c2ccccc12 [6-Nitro-chrysene]	–	6700 nM
Nc1cc2c3ccccc3ccc2c2ccccc12 [Chrysen-6-ylamine]	–	600 nM
